Measured values as given in a melting point compilation (Tetko et al.; mined from patent text by program, amines drawn as free bases though some values may be those of a salt).

Compound | melting point [°C]
CCC(=Cc1ccccc1)C(=O)c1ccc(OC)c(Cl)c1Cl | 127 to 130
O=C1c2cc(Cl)ccc2-n2cccc21 | 92
O=C(O)C1CNc2cc(C(F)(F)F)ccc2O1 (stereo not drawn) | 105 to 107
O=C(O)Cc1cn(-c2ccccc2)nc1OCc1ccccc1 | 105 to 106
O=[N+]([O-])c1ccc2nc(-c3ccccc3)cc(Cl)c2c1 | 166 to 167
Cc1oc(-c2ccccc2)nc1CC#Cc1ccc(CC(C(=O)O)c2cccc(-c3ccccc3)c2)cc1 (stereo not drawn) | 105 to 107
CC(Sc1nc(N)cc(C(F)(F)F)n1)c1cc2ccoc2cn1 (stereo not drawn) | 180 to 182
CC(C)CNS(=O)(=O)c1cccc(NC(=O)c2cnn3c(C(F)F)cc(-c4ccc(C(F)(F)F)cc4)nc23)c1 | 186
NS(=O)(=O)c1ccc(OCCn2ccnc2)cc1 | 148
COc1cc(C(C)C(=O)O)cc2ccc3ccccc3c(=O)c12 (stereo not drawn) | 144 to 147
COc1cccc(Cc2snnc2-c2ccco2)c1 | 80.6 to 82
O=C1CNC(=O)C(=Cc2cc3ccccc3s2)N1 | 258
CCC(CC)c1cccc2nc(C(O)c3c(C)cc(C)cc3C)n(C)c12 (stereo not drawn) | 132 to 134
CC(=O)N1CCN(c2cc3c(c(NCc4ccccc4)c2F)c(=O)c(C(=O)O)cn3C2CC2)CC1C (stereo not drawn) | 235 to 236
CCCCc1ncc2ccccc2c1Cc1ccc(C(=O)O)cc1 | 212
Cc1nc(N)nc(-c2cccc3ccccc23)c1C | 214 to 215
CCC(C#N)C(Br)c1ccc(Br)cc1 (stereo not drawn) | 87
COC(=O)c1ccccc1C=CC(=O)N1CCc2c([nH]c3ccccc23)C1c1ccc2c(c1)OCO2 (stereo not drawn) | 203 to 204
Cc1cc(=O)n2ncn(N)c2n1 | 202 to 204
CCOC(=O)c1ccc(OCCCCC2CC3=C(C2)C(=O)C(OC)=C(OC)C3=O)cc1 | 97 to 99
CC(C)(C)C(=O)NC#N | 112 to 118
COc1ccc(CC(=O)NCCc2cccc(OC)c2OC)cc1OC | 80
CC(C)(C)OC(=O)NCCCCC(=O)N1CCC(c2[nH]nc3c2C(=O)c2c(NC(=O)NN4CCOCC4)cccc2-3)CC1 | 98 to 99
COc1cc(Cc2cnc(NC(C)=N)nc2N)cc(OC)c1OC | 207
COC(=O)COc1ccc([N+](=O)[O-])cc1 | 98 to 99

Compound | melting point [°C]
CCN(CC)C/C=C/c1ccc2c(Nc3ccc(Sc4nccn4C)c(Cl)c3)c(C#N)cnc2c1 | 223 to 228
NC(c1cc(-c2ccc(F)cc2)c(-c2ccc(F)cc2)[nH]1)(C(F)(F)F)C(F)(F)F | 88 to 89
O=[N+]([O-])c1cccc2c(NCC34CCCN3CCC4)cccc12 | 95 to 97
CC(C)CCN1C(=O)C(NC(=O)Oc2cccc(N(C)C)c2)C(=O)N(c2ccccc2)c2cc(Cl)c(Cl)cc21 (stereo not drawn) | 163 to 164
Cc1ccc(-c2ccc3c(c2)C=C(C(=O)Nc2ccc(CN(C)C4CCOCC4)cc2)CCO3)cc1 | 162 to 163
O=C(c1ccccc1)c1ccc2sc(NCCCO)nc2c1 | 162
CCCC1=NN(c2ccc(C(N)=O)cc2)C(=O)C1=CNc1ccccc1CC | 170
O=Cc1ccc(C(F)(F)F)cc1[N+](=O)[O-] | 63
COc1ccc(-n2nnc(-c3ccc(C(F)(F)F)cc3F)c2N)cc1 | 165 to 166
CN(CCF)C(=O)c1cc2ccccc2c(-c2ccccc2I)n1 | 142 to 143
CS(=O)(=O)c1ccc(-c2oc3ccccc3c(=S)c2-c2ccc(F)cc2)cc1 | 203 to 205
CCc1c(Cc2[nH]c(C(=O)OCc3ccccc3)c(C)c2CCCO)[nH]c(Cc2[nH]c(C(=O)OCc3ccccc3)c(C)c2CCCO)c1CC | 172 to 173
COC(=O)C1=C(N)CC2CC[C@H]1N2C | 95 to 98
O=C(O)C=C1COc2ccccc2C1=O | 134 to 136
CCOc1cccc(N(C(=O)CCC(=O)O)c2cc(C(C)(C)C)c(O)c(C(C)(C)C)c2)c1 | 128 to 130
N#CC1=C(C2CCCN2)Nc2n[nH]cc2C1c1cccc(C#N)c1Br (stereo not drawn) | > 240
Nc1ccc2c(c1)C=C(C(=O)O)C(C(F)(F)F)O2 (stereo not drawn) | 126 to 133
CCCCCCCCCCNC(=O)c1cc(C(=O)NCCCCCCCCCC)cc(N(CCCC(=O)OCC)CCCC(=O)OCC)c1 | 75 to 77
CN(C)C(=Cc1ccccc1[N+](=O)[O-])C(=O)CBr | 125 to 127
CCCCn1c(=O)cn[nH]c1=O | 135
COC(=O)c1cc(N2C(=O)C3=C(CCCC3)C2=O)ccc1Cl | 113 to 115
COC(=O)COc1nsc2nc(C)cc(C)c12 | 89 to 91
CN(CC(=O)c1ccc(N2CCOCC2)cc1)C(=O)OC(C)(C)C | 87 to 89
CC(=O)C1CCC2C3CCC4CC(O)C(N5CCSC(C)(C)C5)CC4(C)C3C(=O)CC12C (stereo not drawn) | 202 to 203
COc1ccc2cc(C(=O)C(C)(C)c3ccccc3)oc2c1 | 93 to 95

Compound | melting point [°C]
Cc1nnc2n1-c1ccc(C#CCn3ccc4ccccc43)cc1C(c1ccccc1F)=NC2 | 167 to 169
CS(C)=Nc1cnc(Cl)cn1 | 119 to 120
O=C(O)c1ccc(Sc2ccccc2)cc1 | 101 to 103
CNc1nc(Cc2c(Cl)cccc2Cl)nc(Nc2ccc(C#N)cc2)n1 | 229 to 230
CCOC(C)O[C@@H](C(=O)OC(=O)[C@H](OC(C)OCC)[C@@H](NC(=O)OC(C)(C)C)c1ccccc1)[C@@H](NC(=O)OC(C)(C)C)c1ccccc1 (stereo partly drawn) | 43
O=C(C=CCl)CCCN1C(=O)c2ccccc2C1=O | 92
Cc1cc(C2=NN(C(N)=S)[C@H](C)Cc3cc4c(cc32)OCO4)cc(C)c1[N+](=O)[O-] | 228 to 230
CCCCOc1ccc(/C=C/c2nc3c(c(=O)n(CC)c(=O)n3CC)n2C)cc1 | 123 to 124
Cc1nc2cccc(NC(=O)CCl)c2c(=O)n1C1CCC(=O)NC1=O (stereo not drawn) | 275 to 277
CCOC(=O)c1cn(Cc2ccccc2)nc1OCc1ccc(OCc2nc(-c3ccccc3)oc2C)c(OC)c1 | 154 to 155
COOC(=O)c1cc2c(Cl)cn(C)c2nc1C(=O)OOC | 129 to 137
Cc1nccn1C(C)CC(O)(c1ccccc1)c1ccccc1 (stereo not drawn) | 168 to 169
O=Cc1c(Br)ccc2cc3c(cc12)OCO3 | 165 to 166
Nc1nc(=O)n(CCCCI)cc1F | 181 to 184
c1ccc(-c2nc(-c3ccc(OCCCn4ccnc4)cc3)no2)cc1 | 132 to 133
Cc1occc1Sc1cncc2sc(C(N)=O)cc12 | 236 to 239
O=C(O)c1sc(-c2ccc(Cl)cc2)nc1C(F)(F)F | 235 to 250
C[C@H](CS)C(=O)N1C(C(=O)O)CCC1c1ccccc1 (stereo partly drawn) | 138 to 142
CN=C(NCc1ccccc1)NN=Cc1c(Cl)cccc1Cl | 84 to 86
CC(C)=CC(=O)N1CC(NC(=O)Nc2cccc(C(=O)O)c2)C(=O)N(CC(=O)c2ccccc2C)c2cc(C)ccc21 (stereo not drawn) | 240 to 242
CCOP(=O)(/C=C/c1cn(-c2ccccc2)nc1OCc1ccc(OCc2nc(-c3ccccc3)cn2C)c(OC)c1)OCC | 144 to 145
N#Cc1ccc(N2CCCC2)c2ccccc12 | 109 to 110
Cc1nc(N2CCN(Cc3ccc(C(F)(F)F)nc3)C2=O)sc1C(N)=O | 225 to 228
CCc1nc2c(N)nc3ccccc3c2n1OC(C)C | 242 to 243
COc1ccc(C(=O)Nc2ccccc2)cc1NC(=S)Nc1cccnc1 | 178 to 179

Compound | melting point [°C]
CCN(CC)CCOc1ccc(Nc2ncc3c(n2)N(C)C(=O)N(c2cccc(Br)c2)C3)cc1 | 150
Cn1c(=O)c(-c2c(Cl)cccc2Cl)cc2cnc(NCc3ccccn3)nc21 | 198 to 201
CC(C)(C)N(O)CC(O)c1cc(F)c(N)c(Br)c1 (stereo not drawn) | 122 to 125
CN1CCN(c2c(F)c(NCc3ccccc3)c3c(=O)c(C(=O)O)cn(C4CC4)c3c2F)CC1 | 132 to 133
COc1cc(-n2nc3ccc(Cl)cn3c2=O)c(F)cc1Cl | 140 to 142
CC(=O)CCc1c(OC(C)=O)cc(C(C)C)c(OC(C)=O)c1C(C)C | 108 to 112
CC1(C)C2CC=C(CCn3c(=O)nc(-c4ccccc4)c4cc([N+](=O)[O-])ccc43)C1C2 (stereo not drawn) | 80 to 81
NC(=S)NN=C(CNC(=O)Cc1ccccc1)c1ccccc1 | 170 to 172
CC(=NO)c1ccc2c(c1)CCCN2C(=O)OC(C)(C)C | 127 to 129
COC1(c2csc(Sc3ccc(/C(C)=N/O)cn3)c2)CCOCC1 | 151 to 153
CCOC(=O)CNC(=O)N(C(=O)NCC(=O)OCC)c1ccc(C(=O)/C=C/c2cc(OC)c(OC)c(-c3cccs3)c2)cc1 | 83 to 86
CNC(=O)c1ccc(C)c(-c2nc(SC)nc3c2CNC(=O)N3c2c(F)cccc2F)c1 | 273 to 275
CC1(C)OCc2cc([C@@H](O)CN[C@H]3CCc4ccc(O)cc4C3)ccc2O1 | 156 to 158
C#CCn1c(=O)n(-c2ccccc2)c2ccccc21 | 145 to 147
O=C(CC1CCCCC1)Nc1c(Cl)ccc2nc(N3CCC(NS(=O)(=O)C(F)(F)F)CC3)ccc12 | 187 to 189
O=C(Cl)c1ccc(Cl)c(OCCn2cnnn2)c1Cl | 69 to 73
COc1ccccc1Sc1c(Cl)nc(C)nc1NS(=O)(=O)c1ccc(C(C)(C)C)cc1 | 155
Oc1ccc(C(NC(c2ccccc2)c2ccccc2)P(O)O)c(O)c1 (stereo not drawn) | 250
CCOC(=O)c1c(N2CCN(C(=O)c3cccs3)CC2)c2sccc2n(Cc2cccc(F)c2)c1=O | 95 to 113
CN(C)c1c(C#N)cnc2c(NC(=O)c3c(Cl)cccc3Cl)cccc12 | 227 to 228
O=C1NCC(c2cccs2)SCC1N1C(=O)c2ccccc2C1=O (stereo not drawn) | 183 to 184
O=C(NC(Cc1ccc(OCc2cccc(F)c2)cc1)C(=O)O)c1cn2ccc(-c3ccc(Cl)cc3)cc2n1 (stereo not drawn) | 248 to 250
OC(c1cccc(C(F)(F)F)c1)C1CCN(CCc2ccccc2)CC1 (stereo not drawn) | 143 to 147
